Series [1] concerns LLC lung metastasis. The series can be described thus: Lewis lung carcinoma model (LLC), number of lung metastases. It counts as in vivo, C57B1/6 mice. The note with it: for Percent reduction from control (lung metastases): first experiment. The method, then: We have verified the anti-tumor efficacy and the protective effect of cartilage extract by testing a combination of diverse concentrations of cartilage liquid extract alone and in combination with cisplatin (CDDP), in the Lewis lung carcinoma model (LLC). LLC cells were resuspended in sterile PBS (10^6 cells/0.2 ml) and implanted in C57B1/6 mice. After a period of 11 days, primary tumors reached an average volume of 1.0 cm^3 and were surgically resected. After surgery, mice were randomized into groups of 15 animals and control article (saline) and cartilage extract were administered on a daily basis via oral gavage at the dose levels indicated for a period of 15 days. At day 16-post-surgery, animals were sacrificed, the lungs fixed in 10% […] and the number of lung metastases counted. Animals were always kept under controlled environment: temperature 22° C., humidity 40% to 50%, light/dark cycle: 12 hours. They were fed and given water ad libitum. In a first experiment, five injections of CDDP were given intraperitoneally every three days (1, 2 and 3 mg/Kg). Cartilage extract was given per as daily (31, 125 and 500 mg/Kg). Saline was given as a control. In a second independent experiment, CDDP was given at a dose of 4 mg/kg. Cartilage extract was given at doses 75, 150 and 500 mg/kg. Saline was given again as a control. Administration of CDDP alone reduced the number of metastases by about 71%.

Series [2] is described as follows: Toxic side effects by body weights of LLC mice. It counts as in vivo, C57B1/6 mice. The note with it: CDDP alone 4 mg/kg; after fifteen days from inoculation. As for the experimental part:
LLC cells were resuspended in sterile PBS (10^6 cells/0.2 ml) and implanted in C57B1/6 mice. After a period of 11 days, primary tumors reached an average volume of 1.0 cm^3 and were surgically resected. After surgery, mice were randomized into groups of 15 animals and control article (saline) and cartilage extract were administered on a daily basis via oral gavage at the dose levels indicated for a period of 15 days. At day 16-post-surgery, animals were sacrificed, the lungs fixed in 10% […] and the number of lung metastases counted. Animals were always kept under controlled environment: temperature 22° C., humidity 40% to 50%, light/dark cycle: 12 hours. They were fed and given water ad libitum. The toxic side effects were evaluated by measuring the body weights. The results are illustrated in FIG. 2. During the first week of treatment, the body weights increased in all groups. Treatment started on Day 12 of the protocol. The decrease in body weight observed between the second and the third time point of the graph results from the surgery (on day 11) necessary to remove the primary LLC tumor mass. After fifteen days from inoculation, it was observed that CDDP alone was very toxic since a decrease of about 16% of body weight occurred in comparison to the non-treated group.

For series [3], the system named is peripheral white blood cells. The series can be described thus: Number of peripheral white blood cells in normal mice. It is filed as in vivo. The conditions noted are these: for Number of white blood cells: day 15. The method, then: Toxicity was evaluated in cancerous animals by the body weight decrease. We further characterized the nature of the protective effect provided by the cartilage extract by assessing an hematology parameter namely the number of peripheral white blood cells. Normal mice were injected (l.P.) with CDDP (3 and 4 mg/kg) on days 1, 4, 7, 10 and 13 of the experimental protocol. The cartilage extract was administered, orally, at doses of 75, 150 and 500 mg/kg/day. Animals were sacrificed on day 15 and blood samples were collected for cell count using an automated blood cell analyzer. Groups consisted of animals receiving CDDP alone, the cartilage extract alone, both in combination or saline as negative control. […] Values obtained from individual groups that have received cartilage extract were pooled to increase statistical power. Mean white blood cell counts were plotted according to treatment group regimen (FIG. 3). A linear trend indicated a clear monotonic trend (r^2=0.9126) for as decrease in cell counts according to treatment regimen stringency. This observation is in agreement with a protective effect of the cartilage extract relative to the peripheral white blood cell population reduced during CDDP administration.

`[NH2][Pt]([NH2])([Cl])[Cl]` [CDDP, cisplatin]: the “Percent reduction from control (lung metastases)” value in series [1] (CDDP 1 mg/kg i.p., alone) amounted to 19%; in series [1] (CDDP 2 mg/kg i.p., alone), 35%; in series [1] (CDDP 3 mg/kg i.p. every three days x5, alone), 54%. The “reduction of the number of metastases” value in series [1] (CDDP alone 4 mg/kg, second independent experiment) is on record as “about 71%”. In series [1] (CDDP alone at 5 mg/kg (data not shown), stated equivalent to the 500 mg/kg/day + 3 mg combination), the decrease in metastases is about 85%. Besides, in series [2], the “decrease of body weight in comparison to the non-treated group” value was “about 16%”. For the same compound, the “Number of white blood cells” value in series [3] (CDDP 3 mg/kg i.p. days 1, 4, 7, 10, 13) was 3.4e+09 L⁻¹; in series [3] (CDDP 4 mg/kg i.p. days 1, 4, 7, 10, 13) it was 3.3e+09 L⁻¹. Further, the “effect on number of white blood cells” value in series [3] (CDDP 3 and 4 mg/kg alone) was “significant decrease of the number of white blood cells”.
